Our source for the melting point values is a melting point compilation (Tetko et al.).

In turn, `O=[N+]([O-])c1ccc(Oc2ccccc2)c([N+](=O)[O-])c1` registered a melting point of 71 °C.

Take `Clc1cc(Cl)c2c(c1Cl)Oc1c(Cl)cc(Cl)c(Cl)c1O2`: the melting point is 238 °C.

Regarding `O=c1cc(-c2ccccc2)oc2ccc3ccccc3c12`, the melting point was determined as 164 °C.

On to `Cc1ccc(Sc2ccc(C=CC(=O)O)cc2[N+](=O)[O-])cc1`, for which the melting point lay in the range of 217 to 218 °C.

As to `Cc1cc(C)c(N=C=O)c(C)c1`, the melting point came to 44.5 °C.

The molecule `O=c1c(C2CC(c3ccc(-c4ccccc4)cc3)Cc3ccccc32)c(O)oc2ccccc12` (stereo not given) yielded a melting point of 213 °C.

`O=C(O)c1cc2cccnc2s1` displayed a melting point of 293 to 294 °C.

Take `COc1cc(OC)cc(C(N)=O)c1`: the melting point came to 144 °C.

In turn, `O=C1c2ccccc2C(=O)c2c(O)c(O)cc(O)c21` came in with a melting point of 259 °C.

Take `CCN(CC)CC(=O)OCC(=O)C1(O)CCC2C3CCC4=CC(=O)C=CC4(C)C3C(O)CC21C` (stereo not given): the melting point was determined as 176 °C.

Regarding `O=[N+]([O-])c1cccnc1N1CCN(CCO)CC1`, the melting point was in the range of 82 to 83 °C.

`N#Cc1cccc(Cl)n1` returned a melting point of 87 °C.

As to `c1cc2c3c(cccc3c1)C1=NCCN=C12`, the melting point came out at 95 °C.

Consider `CC(C)C(O)(c1ccc(OC(F)(F)F)cc1)c1cncnc1` (stereo not given), for which the melting point came out at 95.3 °C.

`CCOC(=O)c1[nH]cnc1C` registered a melting point of 204 to 206 °C.

The molecule `CC(=O)NC(N)=O` displayed a melting point of 218 °C.

`BrCCc1ccc(CCBr)cc1` returned a melting point of 73 °C.

The molecule `CC(C)NC(=O)CC#N` yielded a melting point of 62 to 65 °C.

`Cc1ccc(C(O)(c2ccc(C)cc2)C2(C)CCC(C(=O)O)C(C)(C)O2)cc1` (stereo not given) came in with a melting point of 152 °C.

Regarding `CC(=O)C(c1ccccc1)c1ccccc1`, the melting point was 61 °C.

As for `CCOC(=O)NNC(=O)Nc1ccccc1`, the melting point is 144 to 145 °C.

Turning to `CN(C)c1ccc(C=Cc2ccc3ccccc3n2)cc1`, the melting point stood at 184 °C.

Molecule `CC(CC(C)(C)C1CCCCC1)C1CCCCC1` (stereo not given) yielded a melting point of -30 °C.

For the molecule `CC(=O)Nc1ccccc1-c1onc(-c2ccccc2)c1-c1ccccc1`, the melting point amounted to 190 °C.

In turn, `CC(=O)Nc1cccc(-n2nnnc2S)c1` displayed a melting point of 185 to 187 °C.

In the case of `C=C1C(C)C2C(Cc3ccccc3)NC(=O)C23OC(=O)C=CC(O)CCCC(C)CC=CC3C1O` (stereo not given), the melting point fell in the range of 218 to 223 °C.

Consider `CC(C)(Oc1ccccc1)C(=O)O`, for which the melting point is 98.5 °C.

With `N#CCC=CCC#N`, the melting point was found to be 76 °C.

In turn, `O=C1Cc2cc3c(cc21)OCO3` gave a melting point of 126 °C.

Turning to `CCC(=O)OCC(C)C`, the melting point was -71.4 °C.

For the molecule `CCC1(CCC(C)C)C(=O)NC(=O)NC1=O`, the melting point amounted to 156 °C.

Consider `OCc1ccc(-c2cncnc2)cc1`, for which the melting point was 127 to 130 °C.

Molecule `COC(=O)C1CCC(C)(C(O)(c2ccccc2)c2ccccc2)OC1(C)C` (stereo not given) returned a melting point of 91 °C.

`CC1=Nc2ccc3ccccc3c2C1(C)C` registered a melting point of 117 °C.

In turn, `Brc1ccncc1` returned a melting point of 0.5 °C.

In turn, `Nc1ncnc2c1ncn2CCCNC(=O)c1cc([N+](=O)[O-])cc([N+](=O)[O-])c1` registered a melting point of 234 °C.

Turning to `OCc1cc(-c2cccs2)[nH]n1`, the melting point was in the range of 126 to 128 °C.

For `FC(F)(F)C(F)(F)C(F)(F)C(F)(F)F`, the melting point was -128 °C.

In the case of `Nc1nc(N)nc(-c2cc(Cl)ccc2Cl)n1`, the melting point came out at 268 °C.

For the molecule `COC12C(COC(N)=O)C3=C(C(=O)C(C)=C(Nc4cnccc4N)C3=O)N1CC1NC12` (stereo not given), the melting point is 159 °C.

With `c1cc(NNc2cccc(-n3cccn3)c2)cc(-n2cccn2)c1`, the melting point lay within 169 to 171 °C.

As to `Cc1n[nH]c(C)c1Cc1ccccc1`, the melting point amounted to 119 °C.

With `O=Cc1cccc(N2CCCC2)n1`, the melting point fell in the range of 63 to 65 °C.

In the case of `COc1cc(Br)cc2cc(C(=O)O)c(=O)oc12`, the melting point lay in the range of 226 to 228 °C.

Consider `O=C(C1CCNCC1)N1CCCCC1`, for which the melting point was in the range of 107 to 109 °C.

The molecule `O=c1c(Cl)c(Cl)cnn1-c1ccc(C(F)(F)F)cc1` yielded a melting point of 139 to 140 °C.

Turning to `CC1(C)CC(=O)c2cc(-c3ccccc3)n(-c3cccc(C(F)(F)F)c3)c2C1`, the melting point was 145 to 147 °C.

With `Nc1ccc(N=Nc2ccccc2)cc1`, the melting point was found to be 127 °C.

`O=C1CCc2ccccc2CC1` had a melting point of 30 °C.

`CC1(C)C2CCC13CS(=O)(=O)N[C@H]3C2` (stereo not given in full) had a melting point of 181 to 185 °C.

`COP(=O)(OC)OC=C(Cl)Cl` registered a melting point of -60 °C.

Molecule `O=C(O)/C=C/C=C/C(=O)O` registered a melting point of 301 °C.

For `NC(=O)c1cccc(F)c1F`, the melting point worked out at 116 °C.

`O=C(c1ccccc1)C(F)(F)F` had a melting point of -40 °C.

In turn, `Oc1ccc(C=Nc2ccccc2N=Cc2ccc(O)cc2O)c(O)c1` yielded a melting point of 163 to 165 °C.

As to `Nc1ccc(Cn2cncn2)cc1`, the melting point lay within 124 to 126 °C.

The molecule `O=C(O)c1ccc(C(=O)O)c(C(=O)O)c1` had a melting point of 231 °C.

In the case of `Nc1nn2c(C(F)(F)F)cc(=O)[nH]c2c1/N=N/c1cccc(C(F)(F)F)c1`, the melting point is 291 °C.

`CC1(C(=O)O)CCC(C(Br)C(Br)c2ccccc2)C1(C)C` (stereo not given) had a melting point of 161 °C.

In turn, `O=C(c1ccccc1)c1cccc([N+](=O)[O-])c1` yielded a melting point of 92 to 94 °C.

Turning to `CN(N)c1cnn(C)c(=O)c1Cl`, the melting point fell in the range of 131 to 133 °C.

Regarding `O=CC(C=O)c1ccncn1`, the melting point was in the range of 227 to 232 °C.

The molecule `CC(=O)OC1CCC2(C)C(=CCC3C4CC(C)C(=O)C4(C)CCC32)C1` (stereo not given) yielded a melting point of 141 °C.

`Cc1ccc(S(=O)(=O)OC2CCC3(C)C(CCC4C5CCCC5(C)CCC43)C2)cc1` (stereo not given) returned a melting point of 129 to 131 °C.

In the case of `Fc1ccc(C=Nc2n[nH]c(N=Cc3ccc(F)cc3)c2Cc2ccc(Cl)cc2)cc1`, the melting point lay in the range of 223 to 225 °C.

Regarding `CNC(=O)N(C)C`, the melting point stood at 75.5 °C.

The molecule `NNC(=O)c1ccc(Br)cc1Cl` showed a melting point of 173 to 175 °C.

As to `COC(=O)c1sc(Br)c(Br)c1O`, the melting point fell in the range of 129 to 131 °C.

`CCOC(=O)c1cc2c(=O)oc3ccccc3c2nc1C`: the melting point was determined as 167 °C.

Consider `N#C/C(=N/Nc1ccccc1[N+](=O)[O-])c1nc(-c2ccccc2)cs1`, for which the melting point was found to be 210 °C.

Molecule `CCCCCCCCCCCCCC(O)CC` (stereo not given) showed a melting point of 50 °C.

Molecule `O=C(O)CCC(=O)Nc1ccccc1` came in with a melting point of 148 °C.

In turn, `O=C(O)C(c1ccccc1)(c1ccccc1)c1ccccc1` registered a melting point of 268 to 269 °C.

On to `O=C(Cl)C(Cl)(c1ccccc1)c1ccccc1`, for which the melting point lay within 47 to 52 °C.

The molecule `N#Cc1ccc(Cl)cc1N` yielded a melting point of 161 °C.

One may read the melting point as the temperature, or range, at which the solid turns liquid.
